Test results published in ChEMBL document CHEMBL1146306, “Design and synthesis of conformationally constrained tri-substituted ureas as potent antagonists of the human glucagon receptor” (Bioorg Med Chem Lett, 2007).

Columns and labels:
[1] = Cmax in mouse at 1 mg/kg, iv and 2 mg/kg, po; type: ADME, organism-based; details: in vivo
[2] = Plasma clearance in mouse at 1 mg/kg, iv and 2 mg/kg, po; type: ADME, organism-based
[3] = Bioavailability in mouse at 1 mg/kg, iv and 2 mg/kg, po; type: ADME, organism-based; details: in vivo
[4] = Half life in mouse at 1 mg/kg, iv and 2 mg/kg, po; type: ADME, organism-based; details: in vivo
[5] = molecular target: T1, Gastric inhibitory polypeptide receptor (Homo sapiens, UniProt P48546); experiment: Antagonist activity at human GIP receptor transfected in CHO cells assessed as inhibition of […] cAMP accumulation; type: functional, cell-based
T1 sequence (P48546 whole entry): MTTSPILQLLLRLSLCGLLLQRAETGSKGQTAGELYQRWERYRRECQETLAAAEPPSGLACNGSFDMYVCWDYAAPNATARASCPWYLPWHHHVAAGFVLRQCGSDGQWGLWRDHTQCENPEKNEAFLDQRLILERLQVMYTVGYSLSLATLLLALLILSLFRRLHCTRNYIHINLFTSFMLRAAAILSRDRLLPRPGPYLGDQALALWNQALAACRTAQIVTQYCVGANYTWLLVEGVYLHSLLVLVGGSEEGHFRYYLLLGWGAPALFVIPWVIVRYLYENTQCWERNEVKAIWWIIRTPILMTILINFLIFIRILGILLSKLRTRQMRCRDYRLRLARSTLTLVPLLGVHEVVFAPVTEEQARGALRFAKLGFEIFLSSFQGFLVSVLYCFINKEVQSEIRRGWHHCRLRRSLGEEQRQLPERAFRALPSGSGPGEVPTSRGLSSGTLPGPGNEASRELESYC

[6] = Volume of distribution at steady state in mouse at 1 mg/kg, iv and 2 mg/kg, po; type: ADME, organism-based; details: in vivo, read-out: Vdss
Glucagon receptor [7] = molecular target: T2, Glucagon receptor (Homo sapiens, UniProt P47871); experiment: Antagonist activity at human glucagon receptor transfected in CHO cells assessed as inhibition of glucagon-induced cAMP accumulation; type: functional, cell-based
Glucagon receptor [8] = molecular target: T2, Glucagon receptor; experiment: Displacement of [125]glucagon from human glucagon receptor expressed in CHO cells; type: cell-based
CHO = experiment: Selectivity for human glucagon receptor over human GIP receptor expressed in CHO cells by glucagon-stimulated cAMP accumulation assay; type: cell-based
Mus musculus [9] = experiment: Inhibition of glucagon-induced hyperglycemic response in transgenic mouse expressing human glucagon receptor at 10 mg/kg, po after 24 mins relative to control; type: functional; details: 0.4 h
Mus musculus [10] = experiment: Decrease in non-fasting blood glucose level in transgenic diabetic mouse expressing human glucagon receptor at 10 mg/kg, po after 3 days relative to lean control; type: functional; design: scale not given: the % may be the effect or the level left
Mus musculus [11] = experiment: Decrease in non-fasting blood glucose level in transgenic diabetic mouse expressing human glucagon receptor at 10 mg/kg, po after 10 days relative to lean control; type: functional; design: scale not given: the % may be the effect or the level left
Mus musculus [12] = experiment: Inhibition of glucagon-induced hyperglycemic response in transgenic mouse expressing human glucagon receptor at 30 mg/kg, po after 24 mins relative to control; type: functional; details: 0.4 h
Mus musculus [13] = experiment: Decrease in non-fasting blood glucose level in transgenic diabetic mouse expressing human glucagon receptor at 3 mg/kg, po after 3 days relative to lean control; type: functional; design: scale not given: the % may be the effect or the level left
Mus musculus [14] = experiment: Inhibition of glucagon-induced hyperglycemic response in transgenic mouse expressing human glucagon receptor at 3 mg/kg, po after 24 mins relative to control; type: functional; details: 0.4 h
Mus musculus [15] = experiment: Decrease in non-fasting blood glucose level in transgenic diabetic mouse expressing human glucagon receptor at 3 mg/kg, po after 10 days relative to lean control; type: functional; design: scale not given: the % may be the effect or the level left

T2 sequence (P47871 whole entry): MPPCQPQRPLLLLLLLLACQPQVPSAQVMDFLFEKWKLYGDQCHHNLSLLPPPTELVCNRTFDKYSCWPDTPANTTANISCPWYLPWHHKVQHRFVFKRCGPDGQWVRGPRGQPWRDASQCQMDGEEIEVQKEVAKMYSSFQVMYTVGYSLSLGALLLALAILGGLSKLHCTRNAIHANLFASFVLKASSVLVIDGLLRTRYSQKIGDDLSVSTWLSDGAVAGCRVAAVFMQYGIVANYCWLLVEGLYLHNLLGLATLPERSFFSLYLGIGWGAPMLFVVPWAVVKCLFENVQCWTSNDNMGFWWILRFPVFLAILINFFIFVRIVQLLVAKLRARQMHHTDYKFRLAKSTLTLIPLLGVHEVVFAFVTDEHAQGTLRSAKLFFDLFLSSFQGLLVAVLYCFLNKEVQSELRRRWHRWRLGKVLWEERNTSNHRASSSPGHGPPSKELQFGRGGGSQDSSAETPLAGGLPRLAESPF

| IC50 [5] | IC50 (Glucagon receptor [7]; read-out: IC50) | IC50 (Glucagon receptor [8]) | SMILES | other results |
| --- | --- | --- | --- | --- |
| 296 nM | – | – | CC(C)(C)[C@H]1CC[C@H](N(C(=O)Nc2ccc(OC(F)(F)F)cc2)C2CCc3cc(C(=O)Nc4nn[nH]n4)ccc32)CC1 (stereo not given in full) | – |
| – | 85 nM | 22 nM | O=C(Nc1nn[nH]n1)c1ccc2c(c1)CCC2N(C(=O)Nc1ccc(OC(F)(F)F)cc1)c1ccc(C2CCCCC2)cc1 (stereo not given) | – |
| – | 3430 nM | 62 nM | O=C(Nc1nnn[nH]1)c1ccc2c(c1)CCC2N(C(=O)Nc1ccc(OC(F)(F)F)cc1)c1ccc(OC(F)(F)F)cc1 (stereo not given) | – |
| – | 795 nM | 216 nM | CC(C)(C)[C@H]1CC[C@@H](N(C(=O)Nc2ccc(OC(F)(F)F)cc2)C2CCc3cc(C(=O)Nc4nn[nH]n4)ccc32)CC1 (stereo not given in full) | – |
| 4260 nM | 61 nM | 7.6 nM | CC(C)(C)[C@H]1CC[C@H](N(C(=O)Nc2cc(C(F)(F)F)cc(C(F)(F)F)c2)C2CCc3cc(C(=O)Nc4nnn[nH]4)ccc32)CC1 (stereo not given in full) | – |
| – | – | 820 nM | O=C(O)CCNC(=O)c1ccc2c(c1)CCC2N(C(=O)Nc1ccc(OC(F)(F)F)cc1)c1ccc(OC(F)(F)F)cc1 (stereo not given) | IC50 (Glucagon receptor [7]; cho): Not Active |
| 610 nM | 1470 nM | 49 nM | CC(C)(C)[C@H]1CC[C@H](N(C(=O)c2ccc(OC(F)(F)F)cc2)C2CCc3cc(C(=O)Nc4nnn[nH]4)ccc32)CC1 (stereo not given in full) | – |
| 2020 nM | 46 nM | 28 nM | CC(C)(C)[C@H]1CC[C@H](N(C(=O)Nc2cc(C(F)(F)F)cc(C(F)(F)F)c2)C2CCc3cc(C(=O)NCCC(=O)O)ccc32)CC1 (stereo not given in full) | – |
| 3530 nM | 5.9 nM | 4.9 nM | CC(C)(C)[C@H]1CC[C@H](N(C(=O)Nc2cc(Cl)cc(Cl)c2)C2CCc3cc(C(=O)Nc4nn[nH]n4)ccc32)CC1 (stereo not given in full) | Fold change (CHO): > 500 |
| 118 nM | 67 nM | 4.8 nM | CC(C)(C)[C@H]1CC[C@H](N(C(=O)Cc2ccc(OC(F)(F)F)cc2)C2CCc3cc(C(=O)Nc4nnn[nH]4)ccc32)CC1 (stereo not given in full) | – |
| – | 189 nM | 68 nM | O=C(O)CCNC(=O)c1ccc2c(c1)CCC2N(C(=O)Nc1ccc(OC(F)(F)F)cc1)c1ccc(C2CCCCC2)cc1 (stereo not given) | – |
| 435 nM | 18 nM | 1.01 nM | CC(C)(C)[C@H]1CC[C@@H](N(C(=O)Nc2ccc(OC(F)(F)F)cc2)C2CCc3cc(C(=O)Nc4nn[nH]n4)ccc32)CC1 (single isomer, unassigned) | – |
| – | 2780 nM | 130 nM | CC(C)(C)[C@H]1CC[C@H](N(C(=O)c2ccc(OC(F)(F)F)cc2)C2CCc3cc(C(=O)NCCC(=O)O)ccc32)CC1 (stereo not given in full) | – |
| 132 nM | – | – | CC(C)(C)[C@H]1CC[C@H](N(C(=O)Nc2ccc(OC(F)(F)F)cc2)C2CCc3cc(C(=O)NCCC(=O)O)ccc32)CC1 (stereo not given in full) | inhibition in vivo at 10 mg/kg (Mus musculus [9]): 59%; Activity (Mus musculus [10]): 99%; Cmax [1]: 130 nM; Activity (Mus musculus [11]): 106%; clearance [2]: 9 mL/min/kg; bioavailability [3]: 17%; half-life [4]: 5.6 h; inhibition in vivo at 30 mg/kg (Mus musculus [12]): 122%; Activity (Mus musculus [13]): 72%; inhibition in vivo at 3 mg/kg (Mus musculus [14]): 51%; Activity (Mus musculus [15]): 87%; Vd [6]: 1.6 L/kg |
| 603 nM | 46 nM | 3.8 nM | CC(C)(C)[C@H]1CC[C@@H](N(C(=O)Nc2ccc(OC(F)(F)F)cc2)C2CCc3cc(C(=O)NCCC(=O)O)ccc32)CC1 (single isomer, unassigned) | – |
| – | – | 3380 nM | CC(C)(C)[C@H]1CC[C@@H](N(C(=O)Nc2ccc(OC(F)(F)F)cc2)C2CCc3cc(C(=O)NCCC(=O)O)ccc32)CC1 (stereo not given in full) | – |
| 1280 nM | 11 nM | 10 nM | CC(C)(C)[C@H]1CC[C@H](N(C(=O)Nc2cc(Cl)cc(Cl)c2)C2CCc3cc(C(=O)NCCC(=O)O)ccc32)CC1 (stereo not given in full) | Fold change (CHO): > 100 |
| 286 nM | 500 nM | 18 nM | CC(C)(C)[C@H]1CC[C@H](N(C(=O)Cc2ccc(OC(F)(F)F)cc2)C2CCc3cc(C(=O)NCCC(=O)O)ccc32)CC1 (stereo not given in full) | – |

| SMILES | IC50 [5] | IC50 (Glucagon receptor [7]; read-out: IC50) | IC50 (Glucagon receptor [8]) | other results |
| --- | --- | --- | --- | --- |
| CC(C)(C)[C@H]1CC[C@H](N(C(=O)Nc2ccc(OC(F)(F)F)cc2)C2CCCc3cc(C(=O)Nc4nn[nH]n4)ccc32)CC1 (stereo not given in full) | 178 nM | – | – | Cmax [1]: 40 nM; clearance [2]: 6.4 mL/min/kg; bioavailability [3]: 1.4%; half-life [4]: 8 h; Vd [6]: 1.4 L/kg |
| CC(C)(C)[C@H]1CC[C@H](N(C(=O)Nc2ccc(OC(F)(F)F)cc2)C2CCOc3cc(C(=O)NCCC(=O)O)ccc32)CC1 (stereo not given in full) | 217 nM | – | – | Cmax [1]: 60 nM; clearance [2]: 13 mL/min/kg; bioavailability [3]: 15%; half-life [4]: 3.4 h; Vd [6]: 1.4 L/kg |
| CC(C)(C)[C@H]1CC[C@H](N(C(=O)Nc2ccc(OC(F)(F)F)cc2)C2CCOc3cc(C(=O)Nc4nn[nH]n4)ccc32)CC1 (stereo not given in full) | 117 nM | – | – | – |
| CC(C)(C)[C@H]1CC[C@H](N(C(=O)Nc2ccc(OC(F)(F)F)cc2)C2CCCc3cc(C(=O)NCCC(=O)O)ccc32)CC1 (stereo not given in full) | 171 nM | – | – | Cmax [1]: 90 nM; clearance [2]: 9 mL/min/kg; bioavailability [3]: 10%; half-life [4]: 2.5 h; Vd [6]: 0.9 L/kg |
